The values that follow come from patent publication US20070197452A1, “Treatment of amyloid-related diseases” (priority 2006, published 2007).

Entries after “also recorded” stand apart in the source; their conditions may differ.

In one data set the target is T1, β-secretase (Homo sapiens, UniProt P56817).
T1 construct: endogenous in cells
In words: In vitro β-secretase activity assay. Type of data set: cell-based.

A further data set concerns TgCRND8 mice. The data set can be described thus: Open field test for motor activity. It is filed as in vivo, mouse. The conditions noted are these: treated TgCRND8 mice vs untreated TgCRND8 and non-Tg littermates. As to the method:
Behavioural tests: Morris Water Maze testing was performed as previously described. After non-spatial pre-training, mice underwent place discrimination training for 5 days with 4-trials per day, followed by a cued visible platform to rule out general motivational, learning deficits and motor problems, and a probe trial to evaluate memory. […] Open field test for motor activity was preformed as described previously. Duration of walking, pausing and grooming were analyzed as indices of spontaneous locomotor activity. Sensorimotor function was examined with an Economex™ accelerating rotarod (Columbus Instruments, Columbus, Ohio), as described elsewhere. The rod was set to accelerate at a rate of 0.2 r.p.m./s, from an initial, constant speed of 5 r.p.m. Latency to fall was recorded in four daily trials, conducted at 30 min intervals. All mice were trained for seven days before testing. The test day performance score for each animal was obtained by summing its latency to fall over the four trials
Behavioral tests. Morris water maze testing was carried out as previously described. After nonspatial pretraining, mice underwent place discrimination training for 5 d with four trials per day, followed by a cued visible platform trial and a probe trial. An open-field test for motor activity was carried out as described previously. Sensorimotor function was assessed with an Economex accelerating rotarod (Columbus Instruments) as previously described.
Behavioural tests. Morris Water Maze testing was performed as previously described. After non-spatial pre-training, mice underwent place discrimination training for 5 days with 4-trials per day, followed by a cued visible platform to rule out general motivational, learning deficits and motor problems, and a probe trial to evaluate memory. The probe trial was conducted at 72 h after the last testing, and used an annulus-crossing index to assess spatial recall. […]
Duration of walking, pausing and grooming were analyzed as indices of spontaneous locomotor activity. […] Latency to fall was recorded in four daily trials, conducted at 30 min intervals. […]

The test system of the next data set is γ-secretase. In words: In vitro γ-secretase assay in HEK293 cells transfected with human APPswe. It is filed as cell-based. As to the method: FIG. 9. In vitro γ-secretase assays in HEK293 cells transfected with human APPswe. After swAPP stable HEK293 cells were untreated or treated with AZD-103 or 10 nM compound E, cell membranes were used for APP-FL and —CTF detection and for e-stubs generation in vitro assays at 37° C. for 1 hr. Lanes 1&[…] AZD-103 treatment; lanes 3&4 […] AZD-103 treatment; lanes 5&6 compound E treated and lanes 7&8 untreated HEK293 APPswe cells.
(§1) Analysis of APP processing. Mouse hemi-brain samples were homogenized and spun at 109,000 g, in 20 mM Tris pH 7.4, 0.25 M sucrose, 1 mM EDTA and 1 mM EGTA, and a protease inhibitor cocktail, mixed with a mixture of 0.4% DEA (diethylamine) and 100 mMNaCl. The supernatants were analyzed for APP levels by western blotting using the monoclonal antibody 22C11, and the pellets were analyzed for APP holoprotein with the monoclonal antibody C1/6.1 as previously described. […] The target protein was probed with polyclonal APP C-terminal fragment-specific antibody (Sigma) by western blotting.

A further data set deals with T2, Aβ oligomeric species (Homo sapiens, UniProt P05067).
T2 construct: from tissue; host or cells: soluble fraction of hemi-brain homogenates of TgCRND8 transgenic mice
The data set can be described thus: Western blot of soluble brain fractions for Aβ species. Type of data set: in vivo, mouse. The protocol: Soluble Aβ oligomer analyses. Levels of soluble Aβ oligomers were measured by a dot-blot assay with oligomer-specific antibodies on all brain homogenates from all experimental groups. Soluble oligomers were also examined by western blot analyses.
Samples were centrifuged (100,000 g, 20 min, 4° C.), supernatant collected and frozen at −80° C. until use. Proteins (20 μg) were separated by SDS-PAGE on a 10-20% Tris-Tricine gel, transferred to a nitrocellulose membrane, blocked for 1 h at room temp with 8% non-fat milk and incubated overnight with anti-Aβ (6E10; 1:2,500). Membranes were rinsed with TBST, exposed to anti-mouse (1:5,000) for 1 h at room temperature, washed with TBST (6×10 min) and developed using enhanced chemiluminescence. Blots were stripped and re-probed with either anti-APP (22C11; 1:1,000) or anti-GAPDH (1:10,000) to confirm equal protein loading.
A general note: In western blotting, separated proteins are transferred to a membrane and probed.

Data set [1] concerns long term potentiation (LTP) in mouse hippocampal slices. In words: Long term potentiation in hippocampal slices with 7PA2 conditioned medium. Type of data set: cell-based. As to the method: Long Term Potentiation. Field potentials were recorded in CA1 of mouse hippocampus by standard procedures. Swiss Webster mice between the ages of P16 and P26 were anesthetized with isoflurane. […] The hippocampus from each hemisphere was isolated and 350 μm coronal sections were made. […] Once placed in the chamber, slices were continuously perfused by a closed loop containing 15 ml of ACSF to conserve the oligomeric Aβ. […] A bipolar stimulating electrode (World Precision Inst.) was placed in the Schaffer collaterals to deliver baseline stimuli and tetani. A borosilicate glass recording electrode (2-4 MΩ) containing ACSF was positioned approximately 75-200 μm from the stimulating electrode. […] Test stimuli were delivered at 0.05 Hz. To induce LTP, 4 tetani (100 Hz for 1 second) were delivered 5 minutes apart. Field potential responses were amplified 10× using an Axopatch 200B. The data was sampled at 10 kHz and filtered at 2 kHz. Traces were analyzed using pClamp 9.2. The slope of the field potential was estimated using approximately 10-60% of the total response.

A further data set relates to APP. The data set can be described thus: Analysis of APP in brain (western blot). The conditions noted are these: treated TgCRND8 mice. It is filed as in vivo, mouse. The protocol: Analysis of APP in brain. Mouse hemi-brain samples were homogenized and spun at 109,000×g, in 20 mM Tris pH7.4,0.25M sucrose, 1 mM EDTA and 1 mM EGTA, and a protease inhibitor cocktail, mixed with 0.4% DEA (diethylamine)/100 mM NaCl. The supernatants were analysed for APPs levels by Western blotting using mAb 22C11, while the pellets were analysed for APP holoprotein with mAb C1/6.1 as previously described.
as §1

Where [2] appears, read: 4-month-old TgCRND8 mice, treated (n=4) vs untreated (n=4).
Setting [3] is: 4-month-old treated vs untreated TgCRND8 mice, densitometry.

T2 sequence (P05067 672-713 limits assumed): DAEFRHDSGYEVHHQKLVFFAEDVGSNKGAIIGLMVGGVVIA
T1 sequence (P56817 46-501): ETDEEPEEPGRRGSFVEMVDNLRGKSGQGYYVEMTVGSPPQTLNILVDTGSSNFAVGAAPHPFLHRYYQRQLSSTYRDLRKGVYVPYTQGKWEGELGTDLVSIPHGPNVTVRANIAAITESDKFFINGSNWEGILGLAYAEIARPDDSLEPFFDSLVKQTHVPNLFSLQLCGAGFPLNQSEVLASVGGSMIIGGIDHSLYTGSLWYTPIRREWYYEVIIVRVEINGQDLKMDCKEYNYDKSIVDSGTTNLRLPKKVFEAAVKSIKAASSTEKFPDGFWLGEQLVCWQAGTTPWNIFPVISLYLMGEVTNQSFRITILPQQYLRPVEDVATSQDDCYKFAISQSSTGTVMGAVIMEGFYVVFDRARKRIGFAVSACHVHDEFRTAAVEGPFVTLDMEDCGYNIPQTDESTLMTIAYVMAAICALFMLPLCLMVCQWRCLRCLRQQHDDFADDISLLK

With `OC1C(O)C(O)C(O)C(O)C1O` (stereo not drawn) [scyllo-cyclohexanehexol, 1,3,5/2,4,6-(scyllo-) cyclohexanehexol], on β-secretase, the β-secretase enzyme activity entry is on record as “no effect”. In addition, in the data set with TgCRND8 mice, the “open field: grooming, pausing, walking / activity levels” value (shortened to “open field … walking / activity levels”) was “indistinguishable; also recorded: does not affect activity levels”. Moreover, in the data set with TgCRND8 mice (listed as AZD-103), the “open field … walking / activity levels” value is “does not affect activity levels”. The “open field … walking / activity levels” value in the data set on TgCRND8 mice (listed as Scyllo-cyclohexanehexol) is reported as “no effect on grooming or activity”. The γ-secretase enzyme activity entry in the data set on γ-secretase is reported as “no effect”. Moreover, on Aβ oligomeric species (setting [2]), the “high-molecular-weight Aβ species” value is given as “decrease in high-molecular-weight Aβ species” and the “smaller Aβ oligomers” value is reported as “increase in smaller oligomers”. Moreover, at Aβ oligomeric species (setting [3]), the “increase in low-molecular-weight trimeric Aβ species” value was 282±5% and the “reduction of high-molecular-weight Aβ oligomeric species” value is recorded as 25±4.5%. Also, the “synaptic response in the absence of a potentiating tetanus” value in data set [1] (baseline transmission, data not shown) is reported as “did not change synaptic response”. For the same molecule, the “direct effect on LTP” value in data set [1] (compound-treated medium from plain CHO cells) was “no direct effect on LTP”. Further, the “levels of APP holoprotein, APP glycosylation, APPs-α, APPs-β in brain homogenates” value in the data set on APP is reported as “no effect”.
